One data set concerns the target T1, TIE2 (Homo sapiens, UniProt Q02763).
T1 construct: purchased BPS 40270
Nature of the data set: Kinase inhibition, Mobility Shift Assay/IMAP, TIE2. The class given is biochemical. A digest of the protocol: (§1)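 Substrate conversion (phosphorylated vs non-phosphorylated) read by mobility shift on Caliper EZ Reader II and converted to % inhibition relative to no-enzyme and DMSO controls. IC50 fitted from % inhibition versus log compound concentration.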

Another data set concerns the target T2, VEGFR3 (Homo sapiens, UniProt P35916).
T2 construct: purchased Invitrogen PV4129
Nature of the data set: Kinase inhibition, Mobility Shift Assay/IMAP, VEGFR3. The class given is biochemical. A digest of the protocol:
as §1

Another data set has as its target T3, VEGFR1 (Homo sapiens, UniProt P17948).
T3 construct: purchased Invitrogen PR6731B
Nature of the data set: Kinase inhibition, Mobility Shift Assay/IMAP, VEGFR1. The class given is biochemical. A digest of the protocol: as §1

For the next data set, the system named is HUVEC cells. Nature of the data set: Inhibition of VEGF-induced HUVEC cell proliferation, CellTiter Glo. The conditions noted are these: Homo sapiens, 20 ng/ml VEGF, 72 hours. The class given is cell-based. The text has this: In this experiment, human umbilical vein endothelial cells (HUVEC, Lonza) were used. HUVEC cells are primary cells isolated from umbilical veins. This cell line is a model system to study the functions of endothelial cells. Endothelial cell proliferation in response to VEGF is crucial to the pathological angiogenesis associated with conditions such as tumor development and ocular neovascular diseases.
In this assay, a luciferase bioluminescence assay (CellTiter GLU™, Promega) is used to determine the inhibitory activity of the compounds against VEGF-induced HUVEC cell proliferation and viability. CellTiter GLO™ is a homogeneous method for quantifying the count of viable cells in culture based on ATP, an indicator of metabolically active cells. In this assay, the compound was incubated with HUVEC cells for 72 hours, and then the inhibitory activity of the resulting compound against VEGF-induced HUVEC cell proliferation was measured on the En Vision plate reader.
With the RPMI-1640 medium (plus 5% FBS, 1% Penicillin-Streptomycin) used for the HUVEC cell proliferation experiment, add a cell suspension to a 96-well plate at 100 μl per well, i.e., 4000 HUVEC cells/well, and incubate them overnight in a 5% CO2 incubator at 37° C. (serum starvation). After 24 hours, add 96 μl of the experimental medium to the cell wells, and then add 2 μl of the compound to the cell wells; and after 1 hour following the addition of the compound, add 2 μl of 2 μg/ml VEGF to the cell wells. Add 0.1% DMSO and 20 ng/ml VEGF to cell wells to serve as high-reading control wells. Take cell-free wells with only medium as low-reading control wells. […] After 72 hours of incubation of the cell plate in the incubator, hold the cell plate to be tested at room temperature and discard 100 μl of medium per well. Add 100 μl of CTG reagent (CellTiter Glo kit) per well, oscillate the cell plate in a fast oscillator for 3 minutes, and keep the cell plate at room temperature in the dark for 30 minutes. Read the chemiluminescence signal value with the Envision instrument.
X indicates the log value of compound concentration, Y indicates the inhibition rate (% inhibition), Top indicates the readout of the high-reading control well.
In general terms: Cellular ATP, detected with luciferase, serves as a proxy for viable cell number.

Data set [1] can be described thus: Solubility test in buffer, LC-MS. The class given is physicochemical. As to conditions: aqueous buffer, thermodynamic from solid, room temperature, shaking 8 h, pH not given (method: pH 2.0, 6.5, 7.4). A digest of the protocol: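 Compound at 2 mg/mL in buffers of pH 2.0, 6.5 and 7.4, sonicated, shaken 8 h at room temperature, then centrifuged at 13,000 rpm. Supernatant quantified by LC-MS against a 3–5 point calibration.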

As usually defined, the IC50 is the point on the concentration scale where inhibition reaches its midpoint. In general, solubility refers to the dissolved amount per volume that the medium holds. A lower solubility goes with a poorly soluble substance.

≈ marks a conversion by molar mass, not a printed value.

T2 sequence (P35916 25-1363): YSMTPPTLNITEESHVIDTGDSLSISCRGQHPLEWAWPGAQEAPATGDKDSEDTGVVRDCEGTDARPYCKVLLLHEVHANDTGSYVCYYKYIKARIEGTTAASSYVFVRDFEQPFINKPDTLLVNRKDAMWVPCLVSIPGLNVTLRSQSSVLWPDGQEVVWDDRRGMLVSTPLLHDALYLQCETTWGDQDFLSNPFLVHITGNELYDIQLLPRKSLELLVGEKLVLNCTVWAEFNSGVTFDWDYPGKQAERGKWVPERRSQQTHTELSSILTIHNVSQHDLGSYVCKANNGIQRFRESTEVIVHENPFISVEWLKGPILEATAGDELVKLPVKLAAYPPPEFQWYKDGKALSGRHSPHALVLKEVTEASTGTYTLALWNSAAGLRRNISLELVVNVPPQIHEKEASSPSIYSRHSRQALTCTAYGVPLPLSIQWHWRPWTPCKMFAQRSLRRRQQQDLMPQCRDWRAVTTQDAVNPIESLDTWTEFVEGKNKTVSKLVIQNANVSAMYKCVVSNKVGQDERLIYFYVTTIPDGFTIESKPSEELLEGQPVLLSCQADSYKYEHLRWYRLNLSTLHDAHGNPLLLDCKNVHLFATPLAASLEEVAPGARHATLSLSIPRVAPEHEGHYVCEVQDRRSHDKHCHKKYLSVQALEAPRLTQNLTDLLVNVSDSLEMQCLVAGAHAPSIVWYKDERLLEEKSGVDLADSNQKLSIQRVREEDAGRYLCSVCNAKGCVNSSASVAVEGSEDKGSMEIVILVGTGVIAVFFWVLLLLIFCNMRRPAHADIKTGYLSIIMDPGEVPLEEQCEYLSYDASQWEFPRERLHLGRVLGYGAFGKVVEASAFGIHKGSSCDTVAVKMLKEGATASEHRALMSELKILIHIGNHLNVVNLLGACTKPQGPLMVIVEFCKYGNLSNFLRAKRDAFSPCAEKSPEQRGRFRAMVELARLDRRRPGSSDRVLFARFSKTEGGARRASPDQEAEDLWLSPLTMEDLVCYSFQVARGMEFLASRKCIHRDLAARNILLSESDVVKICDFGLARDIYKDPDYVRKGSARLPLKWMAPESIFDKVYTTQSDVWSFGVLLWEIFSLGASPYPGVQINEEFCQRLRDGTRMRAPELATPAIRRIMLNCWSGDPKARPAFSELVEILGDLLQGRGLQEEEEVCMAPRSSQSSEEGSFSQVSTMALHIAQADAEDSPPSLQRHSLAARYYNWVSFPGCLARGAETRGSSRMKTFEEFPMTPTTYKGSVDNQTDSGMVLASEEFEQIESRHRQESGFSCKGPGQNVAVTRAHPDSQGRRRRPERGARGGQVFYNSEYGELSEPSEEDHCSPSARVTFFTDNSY
T3 sequence (P17948 27-1338): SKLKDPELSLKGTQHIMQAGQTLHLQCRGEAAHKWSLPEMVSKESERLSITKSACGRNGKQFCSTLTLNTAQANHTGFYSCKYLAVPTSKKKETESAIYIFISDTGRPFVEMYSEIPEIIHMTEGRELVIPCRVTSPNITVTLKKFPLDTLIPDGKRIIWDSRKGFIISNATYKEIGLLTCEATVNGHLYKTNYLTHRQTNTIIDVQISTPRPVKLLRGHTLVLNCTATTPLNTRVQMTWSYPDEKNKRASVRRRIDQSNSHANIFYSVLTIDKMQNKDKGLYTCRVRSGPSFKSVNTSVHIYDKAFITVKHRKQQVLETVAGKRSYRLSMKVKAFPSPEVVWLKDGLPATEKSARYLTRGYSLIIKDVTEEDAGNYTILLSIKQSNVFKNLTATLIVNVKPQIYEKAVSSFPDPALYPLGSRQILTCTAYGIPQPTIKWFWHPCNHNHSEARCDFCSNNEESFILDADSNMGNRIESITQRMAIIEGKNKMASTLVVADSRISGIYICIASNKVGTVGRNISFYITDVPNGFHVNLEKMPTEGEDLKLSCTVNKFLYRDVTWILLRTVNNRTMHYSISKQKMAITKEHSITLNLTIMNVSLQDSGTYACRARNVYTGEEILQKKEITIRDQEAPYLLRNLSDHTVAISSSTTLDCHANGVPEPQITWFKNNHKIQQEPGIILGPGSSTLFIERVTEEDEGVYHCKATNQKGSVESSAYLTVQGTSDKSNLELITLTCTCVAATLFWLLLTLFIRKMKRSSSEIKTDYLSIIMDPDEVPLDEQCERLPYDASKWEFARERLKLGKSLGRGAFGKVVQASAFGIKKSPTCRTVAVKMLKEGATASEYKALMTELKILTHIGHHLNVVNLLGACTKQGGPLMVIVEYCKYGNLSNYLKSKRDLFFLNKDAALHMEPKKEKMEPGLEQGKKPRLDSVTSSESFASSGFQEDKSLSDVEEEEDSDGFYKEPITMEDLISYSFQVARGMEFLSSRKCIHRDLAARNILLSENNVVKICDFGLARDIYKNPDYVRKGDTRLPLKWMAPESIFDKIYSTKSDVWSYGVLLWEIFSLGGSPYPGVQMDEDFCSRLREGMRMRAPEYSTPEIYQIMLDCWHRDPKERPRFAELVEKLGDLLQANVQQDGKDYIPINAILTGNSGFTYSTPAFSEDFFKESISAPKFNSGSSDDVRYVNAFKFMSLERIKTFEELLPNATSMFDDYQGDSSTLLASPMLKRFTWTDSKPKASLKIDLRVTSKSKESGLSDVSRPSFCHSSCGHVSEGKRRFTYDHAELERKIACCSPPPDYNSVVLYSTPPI
T1 sequence (Q02763 23-1124): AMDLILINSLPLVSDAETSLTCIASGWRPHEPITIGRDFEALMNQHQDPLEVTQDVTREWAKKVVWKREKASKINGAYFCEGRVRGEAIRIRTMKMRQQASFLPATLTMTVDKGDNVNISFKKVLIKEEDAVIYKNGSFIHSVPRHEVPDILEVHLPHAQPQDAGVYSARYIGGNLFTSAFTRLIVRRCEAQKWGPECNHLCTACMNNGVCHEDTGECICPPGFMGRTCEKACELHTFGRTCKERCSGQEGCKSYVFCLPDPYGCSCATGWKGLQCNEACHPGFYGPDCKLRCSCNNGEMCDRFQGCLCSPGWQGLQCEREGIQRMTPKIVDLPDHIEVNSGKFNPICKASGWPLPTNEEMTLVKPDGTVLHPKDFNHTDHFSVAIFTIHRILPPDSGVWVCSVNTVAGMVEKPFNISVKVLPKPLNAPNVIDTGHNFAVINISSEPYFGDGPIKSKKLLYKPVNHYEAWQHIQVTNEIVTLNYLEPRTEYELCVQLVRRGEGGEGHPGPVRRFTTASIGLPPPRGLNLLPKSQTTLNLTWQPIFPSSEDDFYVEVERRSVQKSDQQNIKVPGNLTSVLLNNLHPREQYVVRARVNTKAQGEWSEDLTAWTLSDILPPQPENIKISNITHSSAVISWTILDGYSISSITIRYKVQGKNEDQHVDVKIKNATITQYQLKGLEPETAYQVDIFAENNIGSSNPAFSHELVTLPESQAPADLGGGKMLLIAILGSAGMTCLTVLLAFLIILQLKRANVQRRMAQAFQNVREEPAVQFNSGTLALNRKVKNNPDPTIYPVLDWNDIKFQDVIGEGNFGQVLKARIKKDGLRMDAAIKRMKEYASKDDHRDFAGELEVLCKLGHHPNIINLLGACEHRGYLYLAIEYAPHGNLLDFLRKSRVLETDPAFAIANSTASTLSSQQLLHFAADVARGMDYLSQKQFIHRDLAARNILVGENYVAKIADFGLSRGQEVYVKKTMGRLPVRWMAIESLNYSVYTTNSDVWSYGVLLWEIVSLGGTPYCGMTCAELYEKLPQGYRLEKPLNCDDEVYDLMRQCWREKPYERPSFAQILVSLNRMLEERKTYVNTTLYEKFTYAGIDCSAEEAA

Take `NC(=O)c1c(OCc2cc(C(=O)NC3CC3)ccc2F)nsc1NC(=O)NCCCCN1CCCC1` [Compound T087, 3-[[5-(cyclopropylcarbamoyl)-2-fluoro-phenyl]methoxy]-5-(4-pyrrolidin-1-ylbutylcarbamoylamino)isothiazole-4-carboxamide]: the IC50 at TIE2 worked out at 1420 nM; on VEGFR3, 0.8 nM; at VEGFR1, 1.11 nM; in the data set with HUVEC cells it was 45.4 nM.

Consider `NC(=O)c1c(OCc2cc3c(cc2F)CCO3)nsc1NC(=O)NCCCCN1CC[C@@H](O)C1` [Compound T091, 3-[(5-fluoro-2,3-dihydrobenzofuran-6-yl)methoxy]-5-[4-[(3R)-3-hydroxypyrrolidin-1-yl]butylcarbamoylamino] isothiazole-4-carboxamide], for which the IC50 was 6.72 nM at VEGFR3, 5.87 nM at VEGFR1 and 36 nM in the data set with HUVEC cells.

In the case of `CN1CCN(CCCNC(=O)Nc2snc(OCc3cc4c(cc3F)CCO4)c2C(N)=O)CC1` [Compound T101, 3-[(5-fluoro-2,3-dihydrobenzofuran-6-yl)methoxy]-5-[3-(4-methylpiperazin-1-yl)propylcarbamoylamino] isothiazole-4-carboxamide], the half-inhibitory concentration (IC50) on TIE2 was 163 nM; in the data set on HUVEC cells, 48.6 nM.

In the case of `NC(=O)c1c(OCc2cc(C(=O)NC3CC3)ccc2F)nsc1NC(=O)NCCCN1CC[C@H](F)C1` [Compound T116, 3-[[5-(cyclopropylcarbamoyl)-2-fluoro-phenyl]methoxy]-5-[3-[(3S)-3-fluoropyrrolidin-1-yl]propylcarbamoylamino]isothiazole-4-carboxamide], the IC50 on TIE2 was 2360 nM; at VEGFR3, 4.8 nM; on VEGFR1, 1.21 nM; with HUVEC cells it was 21 nM. In addition, the concentration in solution in data set [1] (solubility at 8 h) came to 1090 µg/mL (≈ 2.08 mM).

With `CN1CCN(CCCNC(=O)Nc2snc(OCc3cc(C(=O)NC4CC4)ccc3F)c2C(N)=O)CC1` [Compound T118, 3-[[5-(cyclopropylcarbamoyl)-2-fluoro-phenyl]methoxy]-5-[3-(4-methylpiperazin-1-yl)propylcarbamoylamino]isothiazole-4-carboxamide], in the data set on HUVEC cells, the IC50 was 39 nM. Further, in data set [1], the concentration in solution (solubility at 8 h) came to 2050 µg/mL (≈ 3.85 mM).

As for `NC(=O)c1c(OCc2cc(C(=O)NC3CC3)ccc2Cl)nsc1NC(=O)NCCCCN1CCCC1` [Compound T123, 3-[[2-chloro-5-(cyclopropylcarbamoyl)phenyl]methoxy]-5-(4-pyrrolidin-1-ylbutylcarbamoylamino)isothiazole-4-carboxamide], the IC50 worked out at 973 nM on TIE2 and 17.1 nM in the data set on HUVEC cells.

Take `NC(=O)c1c(OCc2c(F)ccc(C(=O)NC3CC3)c2F)nsc1NC(=O)NCCCCN1CCCC1` [Compound T124, 3-[[3-(cyclopropylcarbamoyl)-2,6-difluoro-phenyl]methoxy]-5-(4-pyrrolidin-1-ylbutylcarbamoylamino)isothiazole-4-carboxamide]: the IC50 is 2890 nM at TIE2 and 43.6 nM in the data set on HUVEC cells. The compound further displayed a solubility at 8 h in data set [1] of 1950 µg/mL (≈ 3.63 mM).

Source of the values: patent US20260217698A1 (BEYANG THERAPEUTICS CO., LTD., priority 2022, published 2026).
